The values that follow come from ChEMBL document CHEMBL4346724, “Porphyrinoid photosensitizers mediated photodynamic inactivation against bacteria” (Eur J Med Chem, 2019).

For series [1], the system named is Staphylococcus aureus. The series can be described thus: Photodynamic antibacterial activity against Staphylococcus aureus assessed as reduction in biofilm activity at 2.5 uM incubated for 10 mins in presence of tungsten halogen lamp light exposure at 22.5 to 180 J/cm2. In kind it is functional.
The subject of series [2] is Pseudomonas aeruginosa. The series can be described thus: Photodynamic antibacterial activity against Pseudomonas aeruginosa assessed as reduction in biofilm formation at 20 uM incubated for 10 mins in presence of tungsten halogen lamp light exposure at 22.5 to 180 J/cm2. In kind it is functional.
Series [3] deals with Staphylococcus aureus. The series can be described thus: Photodynamic antibacterial activity against Staphylococcus aureus assessed as bacterial killing within 15 mins in presence of tungsten lamps light at 37 uEm'-2sec'-1 by spectrophotometic analysis relative to control. In kind it is functional.
The subject of series [4] is Staphylococcus aureus. The series can be described thus: Photodynamic antibacterial activity against Staphylococcus aureus assessed as reduction in bacterial burden at 100 nM. In kind it is functional.
The subject of series [5] is Enterococcus faecalis. Put plainly: Dark toxicity against Enterococcus faecalis assessed as reduction in bacterial burden. In kind it is organism-based. Particulars: in vivo.
Series [6] has as its system Enterococcus faecalis. The series can be described thus: Photodynamic antibacterial activity against Enterococcus faecalis assessed as reduction in bacterial burden at 30 uM in presence of light irradiation at 100 J/cm2. In kind it is functional.
Series [7] relates to Enterococcus faecalis. The series can be described thus: Photodynamic antibacterial activity against Enterococcus faecalis assessed as reduction in bacterial burden at 10 uM in presence of light irradiation at 100 J/cm2. In kind it is functional.
Series [8] relates to Pseudomonas aeruginosa. The series can be described thus: Photodynamic antibacterial activity against Pseudomonas aeruginosa assessed as reduction in bacterial burden at 1 to 10 uM preincubated for 10 mins in dark condition followed by exposure of LED light at 66 to 266 J/cm2. In kind it is functional.
The test system of series [9] is Pseudomonas aeruginosa. Put plainly: Photodynamic antibacterial activity against Pseudomonas aeruginosa assessed as bacterial killing at 2.5 mg/ml in presence of light at 100 J/cm2 relative to control. In kind it is functional.
The test system of series [10] is Pseudomonas aeruginosa. Put plainly: Photodynamic antibacterial activity against Pseudomonas aeruginosa assessed as reduction in bacterial burden at 100 to 225 uM preincubated with bacteria followed by exposure of mercury vapor lamp light at 100 J/cm2 for 10 mins. In kind it is functional.
Series [11] deals with Enterococcus faecalis. The series can be described thus: Photodynamic antibacterial activity against Enterococcus faecalis assessed as reduction in bacterial burden at 10 uM after 15 mins in presence of light irradiation at 64.8 J/cm2. In kind it is functional.
Series [12] relates to Enterococcus faecalis. The series can be described thus: Photodynamic antibacterial activity against Enterococcus faecalis assessed as reduction in bacterial burden at 5 uM after 15 mins in presence of light irradiation at 64.8 J/cm2. In kind it is functional.
Series [13] deals with Pseudomonas aeruginosa. Put plainly: Photodynamic antibacterial activity against Pseudomonas aeruginosa assessed as bacterial burden at 1 to 10 uM preincubated for 10 mins in dark condition followed by exposure of LED light at 66 to 266 J/cm2 relative to control. In kind it is functional.
In series [14] the test system is Enterococcus faecalis. Put plainly: Photodynamic antibacterial activity against Enterococcus faecalis assessed as reduction in bacterial burden at 5 uM after 15 mins in presence of light irradiation at 14.4 J/cm2. In kind it is functional.
In series [15] the test system is Pseudomonas aeruginosa. The series can be described thus: Photodynamic antibacterial activity against Pseudomonas aeruginosa assessed as reduction in bacterial burden at 225 uM in presence of light at 100 J/cm2. In kind it is functional.
The subject of series [16] is Enterococcus faecalis. Put plainly: Photodynamic antibacterial activity against Enterococcus faecalis assessed as reduction in bacterial burden at 5 uM after 15 mins in presence of light irradiation at 21.6 J/cm2. In kind it is functional.
The subject of series [17] is Pseudomonas aeruginosa. Put plainly: Photodynamic antibacterial activity against Pseudomonas aeruginosa assessed as reduction in biofilm formation at 5 mg/ml in presence of light at 100 J/cm2 relative to control. In kind it is functional. Details: scale not given: the % may be the effect or the level left.
Series [18] deals with Pseudomonas aeruginosa. The series can be described thus: Photodynamic antibacterial activity against Pseudomonas aeruginosa assessed as biofilm formation at 0.5 mg/ml in presence of light at 100 J/cm2 relative to control. In kind it is functional.
Series [19] deals with Pseudomonas aeruginosa. The series can be described thus: Photodynamic antibacterial activity against Pseudomonas aeruginosa assessed as reduction in biofilm formation at 0.5 mg/ml in presence of light at 100 J/cm2. In kind it is functional.
The test system of series [20] is Enterococcus faecalis. Put plainly: Photodynamic antibacterial activity against Enterococcus faecalis assessed as reduction in bacterial burden in presence of light irradiation. In kind it is functional, organism-based.
The subject of series [21] is Escherichia coli. Put plainly: Photodynamic antibacterial activity against Escherichia coli assessed as reduction in bacterial burden at 5 uM after 15 mins in presence of light irradiation at 64.8 J/cm2. In kind it is functional, organism-based.
Series [22] has as its system Escherichia coli. The series can be described thus: Photodynamic antibacterial activity against Escherichia coli ATCC 25922 assessed as reduction in bacterial burden after 24 hrs in presence of diode laser at 6 J/cm2. In kind it is functional.
For the next series, the system named is Saccharomyces cerevisiae. The series can be described thus: Photodynamic fungal activity against Saccharomyces cerevisiae assessed as reduction in fungal burden at 100 nM. In kind it is functional.
The test system of series [23] is Escherichia coli. Put plainly: Photodynamic antibacterial activity against Escherichia coli assessed as reduction in bacterial burden at 0.5 to 1 uM after 15 mins in presence of light irradiation at 1004 J/cm2. In kind it is functional.
Series [24] concerns Capnocytophaga gingivalis. The series can be described thus: Photodynamic antibacterial activity against Capnocytophaga gingivalis assessed as reduction in bacterial viability at 10 uM in presence of light at 5.3 to 20.1 J/cm2 by propidium iodide staining-based fluorescence assay. In kind it is functional.
Another series has as its system Eikenella corrodens. The series can be described thus: Photodynamic antibacterial activity against Eikenella corrodens assessed as reduction in bacterial viability at 10 uM in presence of light at 20.1 J/cm2 by propidium iodide staining-based fluorescence assay. In kind it is functional.
Another series concerns Porphyromonas gingivalis. The series can be described thus: Photodynamic antibacterial activity against Porphyromonas gingivalis assessed as reduction in bacterial viability at 10 uM in presence of light at 5.3 to 20.1 J/cm2 by propidium iodide staining-based fluorescence assay. In kind it is functional.
For series [25], the system named is Aggregatibacter actinomycetemcomitans. Put plainly: Photodynamic antibacterial activity against Aggregatibacter actinomycetemcomitans assessed as reduction in bacterial viability at 10 uM in presence of light at 20.1 J/cm2 by propidium iodide staining-based fluorescence assay. In kind it is functional.
The next series concerns Fusobacterium nucleatum. The series can be described thus: Photodynamic antibacterial activity against Fusobacterium nucleatum assessed as reduction in bacterial viability at 10 uM in presence of light at 5.3 to 20.1 J/cm2 by propidium iodide staining-based fluorescence assay. In kind it is functional.
The test system of series [26] is Aggregatibacter actinomycetemcomitans. The series can be described thus: Photodynamic antibacterial activity against Aggregatibacter actinomycetemcomitans assessed as reduction in bacterial viability at 10 uM in presence of light at 5.3 J/cm2 by propidium iodide staining-based fluorescence assay. In kind it is functional.
Series [27] deals with Helicobacter pylori. The series can be described thus: Photodynamic antibacterial activity against Helicobacter pylori infected in patient assessed as bacterial eradication at 20 mg/lg, po after 4 hrs in presence of white light relative to control. In kind it is functional.
For series [28], the system named is Helicobacter pylori. The series can be described thus: Photodynamic antibacterial activity against Helicobacter pylori infected in patient assessed as bacterial eradication at 20 mg/lg, po after 4 hrs in presence of blue light relative to control. In kind it is functional.

Take `CN(C)CCCOc1ccc(-c2c3nc(c(-c4ccc(OCCCN(C)C)cc4)c4ccc([nH]4)c(-c4ccc(OCCCN(C)C)cc4)c4nc(c(-c5ccc(OCCCN(C)C)cc5)c5ccc2[nH]5)C=C4)C=C3)cc1`: the “log(activity)” value in the series on Staphylococcus aureus [1] is on record as 8; in the series with Pseudomonas aeruginosa [2] it was 3.

For the compound `CC1=Cc2cc3[nH]c(cc4nc(cc5[nH]c(cc1n2)cc5C)C(C)=C4CCC(=O)O)c(CCC(=O)O)c3C`, the Activity in the series with Staphylococcus aureus [3] is given as 99.9%.

`CC1(C)Cc2cc3[nH]c(cc4nc(cc5[nH]c(cc1n2)cc5C(=O)NCC[N+](C)(C)C)CC4(C)C)cc3C(=O)NCC[N+](C)(C)C`: the “log(activity)” value in the series on Staphylococcus aureus [4] came out at 5.

With `Oc1cccc(-c2c3nc(c(-c4cccc(O)c4)c4ccc([nH]4)c(-c4cccc(O)c4)c4nc(c(-c5cccc(O)c5)c5ccc2[nH]5)CC4)C=C3)c1` [TEMOPORFIN], the “log(activity)” value with Enterococcus faecalis [5] was determined as 1.5; with Enterococcus faecalis [6] it was 6.7; in the series on Enterococcus faecalis [7] it was 5.8.

Consider `C[n+]1ccc(-c2c3nc(c(-c4cc[n+](C)cc4)c4ccc([nH]4)c(-c4cc[n+](C)cc4)c4nc(c(-c5cc[n+](C)cc5)c5ccc2[nH]5)C=C4)C=C3)cc1.[I-].[I-].[I-].[I-]`, for which the “log(activity)” value is given as under 1 in the series with Pseudomonas aeruginosa [8]; 4.1 in the series with Pseudomonas aeruginosa [10]; 5.07 with Enterococcus faecalis [11]; 7.33 with Enterococcus faecalis [12]; 7.35 in the series with Enterococcus faecalis [14]; 1.2 with Pseudomonas aeruginosa [15]. Further, in the series with Enterococcus faecalis [16], the “log(activity)” value came to 7. For the same compound, the Activity in the series with Pseudomonas aeruginosa [9] is given as over 99%; with Pseudomonas aeruginosa [13], over 80%; in the series on Pseudomonas aeruginosa [17] it was over 99%.

On to `C[n+]1ccc(-c2c3nc(c(-c4cc[n+](C)cc4)c4ccc([nH]4)c(-c4cc[n+](C)cc4)c4nc(c(-c5cc[n+](C)cc5)c5ccc2[nH]5)C=C4)C=C3)cc1.Cc1ccc(S(=O)(=O)[O-])cc1.Cc1ccc(S(=O)(=O)[O-])cc1.Cc1ccc(S(=O)(=O)[O-])cc1.Cc1ccc(S(=O)(=O)[O-])cc1`, for which the Activity in the series on Pseudomonas aeruginosa [18] amounted to 99.9%. Moreover, in the series on Pseudomonas aeruginosa [19], the “log(activity)” value amounted to 4.

As for `C[n+]1ccc(-c2c3nc(c(-c4cc[n+](C)cc4)c4ccc([nH]4)c(-c4ccc(C(=O)O)cc4)c4nc(c(-c5ccc(C(=O)O)cc5)c5ccc2[nH]5)C=C4)C=C3)cc1`, the figures for the log(activity) with Enterococcus faecalis [20] and with Escherichia coli [21] were 7.03 and over 3, respectively.

Consider `C=Cc1c(C)c2cc3nc(c(C=O)c4[nH]c(cc5nc(cc1[nH]2)C(C)=C5C)c(C)c4C(=O)O)[C@@H](CCC(=O)O)[C@@H]3C`, for which the “log(activity)” value in the series on Escherichia coli [22] came to 0.17.

For the compound `CC1(C)Cc2cc3[nH]c(cc4nc(cc5[nH]c(cc1n2)cc5CN(CCO)CCO)CC4(C)C)cc3CN(CCO)CCO`, the “log(activity)” value in the series on Saccharomyces cerevisiae was over 6.

In the case of `C[n+]1ccc(-c2c3nc(c(-c4ccc(C(=O)O)cc4)c4ccc([nH]4)c(-c4cc[n+](C)cc4)c4nc(c(-c5ccc(C(=O)O)cc5)c5ccc2[nH]5)C=C4)C=C3)cc1`, the log(activity) in the series on Enterococcus faecalis [20] is 0.88; in the series on Escherichia coli [21], over 3.

In the case of `C[n+]1ccc(-c2c3nc(c(-c4cc[n+](C)cc4)c4ccc([nH]4)c(-c4c(F)c(F)c(F)c(F)c4F)c4nc(c(-c5cc[n+](C)cc5)c5ccc2[nH]5)C=C4)C=C3)cc1.[I-].[I-].[I-]`, in the series on Escherichia coli [23], the “log(activity)” value worked out at 3.

Turning to `CC[C@H](C)CCCCCCCCCCC(=O)OC[C@H]1O[C@@H](OC(=O)/C(C)=C/C=C/C(C)=C/C=C/C(C)=C/C=C/C=C(C)/C=C/C=C(\C)CCC=C(C)C)[C@H](O)[C@@H](O)[C@@H]1O`, the “log(activity)” value in series [24] is 6.7; with Eikenella corrodens, 3; with Porphyromonas gingivalis, 4.9; in [25] it was -1; in the series with Fusobacterium nucleatum, 5.3; in series [26], -0.2.

As to `COC(=O)c1ccc(-c2c3nc(c(-c4cc[n+](C)cc4)c4ccc([nH]4)c(-c4cc[n+](C)cc4)c4nc(c(-c5cc[n+](C)cc5)c5ccc2[nH]5)C=C4)C=C3)cc1.[I-].[I-].[I-]`, in the series with Enterococcus faecalis [16], the “log(activity)” value was 7.

Turning to `NCC(=O)CCC(=O)O` [AMINOLEVULINIC ACID], the values for the Activity in the series with Helicobacter pylori [27] and in the series with Helicobacter pylori [28] were 85% and 66%, respectively.
